“And” between values parts separate entries of the source, which are not always exact repeats. Equal values may be shown once. Read-outs that look alike come from different tables or passages of the source.
Assays:
[1] = Biodistribution of [18F]6a and [18F]6b in normal mice (iv injection); assay type: in vivo, ICR mice
Experimental: While under isoflurane anesthesia, 0.15 mL of a 0.1% bovine serum albumin solution containing [^18F]tracers (10-20 μCi) were injected directly into the tail vein of ICR mice (22-25 g, male) The mice (n=3 for each time point) were sacrificed by cervical dislocation at indicated time points post injection. The organs of interest were removed and weighed, and the radioactivity was counted with an automatic gamma counter. The percentage dose per organ was calculated by a comparison of the tissue counts to suitably diluted aliquots of the injected material. Total activities of blood were calculated under the assumption that they were 7% of the total body weight. The % dose/g of samples was calculated by comparing the sample counts with the count of the diluted initial dose.

[2] = target: VMAT2 (Mus musculus, UniProt Q8BRU6); assay: Saturation binding of 18F ligands in mouse striatal homogenates; set-up: The basal forebrain regions of rat and mouse brains were then dissected; from tissue; host or cells: mouse striatal homogenate; mouse brain coronal sections; conditions: estimated based on S.A.=2000 Ci/mmole
Experimental: The basal forebrain regions of rat and mouse brains were then dissected. The tissue homogenates were prepared in 50 mM Hepes, pH 7.5 and 0.3 M sucrose. The specific binding of ^3H or ^18F ligands were determined following the procedures described (Scherman D, Raisman R, Ploska A, Agid Y., [^3H]Dihydrotetrabenazine, a new in vitro monoaminergic probe for human brain, J. Neurochem., 1988:50:1131-36). Total volume of reaction for the assay was 0.2 ml. […] In saturation experiments, increasing concentrations of labeled ligand […] in 50 μl buffer were incubated with 100 μl of homogenates (100-250 μg). Incubation was carried out routinely at room temperature for 90 min. The samples were then filtered through glass fiber filters No. 25 (Schleicher and Schuell, Keene, N.H.) and the bound radioactivity was determined for ^18F in a gamma counter (Packard 5000) with 70% efficiency. Filters containing bound ^3H ligand were dissolved in 7 ml Ecolite(+) overnight and the radioactivity was counted next day in the scintillation counter (Beckman) with 65% counting efficiency. […] Nonspecific binding was determined in the presence of 10 μM tetrabenazine. Both saturation and competition experiments were analyzed using the nonlinear least-square curve fitting program LIGAND. […]

[3] = system: islet cell homogenates; assay: In vitro binding to islet cell homogenates (FIG. 8)
[4] = system: T1, VMAT-2; assay: Blocking of pancreatic signal by DTBZ in rats; assay type: in vivo; conditions: rat
T1 construct: from tissue; host or cells: living rats; organs dissected after iv injection
Experimental: (§1) Rats were pretreated with non-radiolabeled DBTZ (3.8 mg/kg) five minutes prior to injection with (+)-6b.

[5] = Blocking of pancreatic signal by DTBZ in rats; assay type: in vivo; conditions: rat
Experimental: as §1

Sequence of VMAT2 (Q8BRU6 whole entry): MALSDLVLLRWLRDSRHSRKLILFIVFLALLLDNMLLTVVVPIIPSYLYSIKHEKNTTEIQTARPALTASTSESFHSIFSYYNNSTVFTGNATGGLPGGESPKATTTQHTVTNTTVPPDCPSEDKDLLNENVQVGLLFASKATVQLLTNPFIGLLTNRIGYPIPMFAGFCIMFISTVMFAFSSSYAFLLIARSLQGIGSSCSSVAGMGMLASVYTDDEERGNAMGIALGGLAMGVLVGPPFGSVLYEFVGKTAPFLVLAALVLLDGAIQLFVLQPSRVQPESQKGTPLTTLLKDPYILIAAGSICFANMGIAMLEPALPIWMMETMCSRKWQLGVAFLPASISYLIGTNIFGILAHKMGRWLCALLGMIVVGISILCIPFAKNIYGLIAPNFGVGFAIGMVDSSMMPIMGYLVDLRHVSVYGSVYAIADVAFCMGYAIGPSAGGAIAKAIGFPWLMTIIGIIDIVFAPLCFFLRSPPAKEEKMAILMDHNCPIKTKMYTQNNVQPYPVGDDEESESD

COc1cc2c(cc1OCCC[18F])CCN1CC(CC(C)C)C(O)CC21 (racemic) [[^18F]6b]
remaining in brain (brain washout) ([1]; 30 min p.i., normal mice): 13%
brain uptake ([1]; mice, iv, 2 min): 7.08 % ID/g
ST/CB ratio ([1]; mice, iv, time not stated): 3.0
Organ distribution Blood ([1]; normal mice, iv, 2 min): 2.60 ± 0.31 % dose/g
Organ distribution Bone ([1]; normal mice, iv, 2 min): 2.70 ± 0.44 % dose/g
Organ distribution Brain ([1]; normal mice, iv, 2 min): 7.08 % dose/g and 7.08 ± 2.17 % dose/g
Organ distribution Heart ([1]; normal mice, iv, 2 min): 6.79 ± 1.49 % dose/g
Organ distribution Kidney ([1]; normal mice, iv, 2 min): 16.1 ± 3.13 % dose/g
Organ distribution Liver ([1]; normal mice, iv, 2 min): 24.1 ± 4.93 % dose/g
Organ distribution Lung ([1]; normal mice, iv, 2 min): 7.97 ± 1.46 % dose/g
Organ distribution Muscle ([1]; normal mice, iv, 2 min): 1.17 ± 0.16 % dose/g
Organ distribution Skin ([1]; normal mice, iv, 2 min): 1.13 ± 0.25 % dose/g
Organ distribution Spleen ([1]; normal mice, iv, 2 min): 9.19 ± 0.26 % dose/g
Ratio (vs CB) Cortex ([1]; normal mice, iv, 2 min): 1.32
Ratio (vs CB) Hippocampus ([1]; normal mice, iv, 2 min): 1.13
Ratio (vs CB) Striatum ([1]; normal mice, iv, 2 min): 1.36
Regional brain distribution Cerebellum (CB) ([1]; normal mice, iv, 2 min): 6.26 ± 2.89 % dose/g
Regional brain distribution Cortex ([1]; normal mice, iv, 2 min): 8.25 ± 2.51 % dose/g
Regional brain distribution Hippocampus ([1]; normal mice, iv, 2 min): 7.07 ± 1.66 % dose/g
Regional brain distribution Striatum ([1]; normal mice, iv, 2 min): 8.49 ± 1.12 % dose/g
Organ distribution Blood ([1]; normal mice, iv, 15 min): 1.75 ± 0.07 % dose/g
Organ distribution Bone ([1]; normal mice, iv, 15 min): 3.65 ± 0.49 % dose/g
Organ distribution Brain ([1]; normal mice, iv, 15 min): 2.01 ± 0.10 % dose/g
Organ distribution Heart ([1]; normal mice, iv, 15 min): 2.43 ± 0.16 % dose/g
Organ distribution Kidney ([1]; normal mice, iv, 15 min): 5.90 ± 0.25 % dose/g
Organ distribution Liver ([1]; normal mice, iv, 15 min): 15.8 ± 1.65 % dose/g
Organ distribution Lung ([1]; normal mice, iv, 15 min): 3.58 ± 0.33 % dose/g
Organ distribution Muscle ([1]; normal mice, iv, 15 min): 1.16 ± 0.35 % dose/g
Organ distribution Skin ([1]; normal mice, iv, 15 min): 1.15 ± 0.16 % dose/g
Organ distribution Spleen ([1]; normal mice, iv, 15 min): 3.38 ± 0.49 % dose/g
Ratio (vs CB) Cortex ([1]; normal mice, iv, 15 min): 1.00
Ratio (vs CB) Hippocampus ([1]; normal mice, iv, 15 min): 1.31
Ratio (vs CB) Striatum ([1]; normal mice, iv, 15 min): 2.53
Regional brain distribution Cerebellum (CB) ([1]; normal mice, iv, 15 min): 1.63 ± 0.05 % dose/g
Regional brain distribution Cortex ([1]; normal mice, iv, 15 min): 1.62 ± 0.05 % dose/g
Regional brain distribution Hippocampus ([1]; normal mice, iv, 15 min): 2.14 ± 0.16 % dose/g
Regional brain distribution Striatum ([1]; normal mice, iv, 15 min): 4.12 ± 0.52 % dose/g
Organ distribution Blood ([1]; normal mice, iv, 30 min): 1.92 ± 0.22 % dose/g
Organ distribution Bone ([1]; normal mice, iv, 30 min): 9.62 ± 3.42 % dose/g
Organ distribution Brain ([1]; normal mice, iv, 30 min): 1.76 ± 0.27 % dose/g
Organ distribution Heart ([1]; normal mice, iv, 30 min): 2.67 ± 0.26 % dose/g
Organ distribution Kidney ([1]; normal mice, iv, 30 min): 6.80 ± 0.65 % dose/g
Organ distribution Liver ([1]; normal mice, iv, 30 min): 17.3 ± 2.00 % dose/g
Organ distribution Lung ([1]; normal mice, iv, 30 min): 3.46 ± 0.36 % dose/g
Organ distribution Muscle ([1]; normal mice, iv, 30 min): 1.53 ± 0.16 % dose/g
Organ distribution Skin ([1]; normal mice, iv, 30 min): 2.22 ± 0.20 % dose/g
Organ distribution Spleen ([1]; normal mice, iv, 30 min): 3.40 ± 0.43 % dose/g
Ratio (vs CB) Cortex ([1]; normal mice, iv, 30 min): 1.11
Ratio (vs CB) Hippocampus ([1]; normal mice, iv, 30 min): 1.97
Ratio (vs CB) Striatum ([1]; normal mice, iv, 30 min): 3.0 and 2.95
Regional brain distribution Cerebellum (CB) ([1]; normal mice, iv, 30 min): 1.30 ± 0.19 % dose/g
Regional brain distribution Cortex ([1]; normal mice, iv, 30 min): 1.45 ± 0.38 % dose/g
Regional brain distribution Hippocampus ([1]; normal mice, iv, 30 min): 2.55 ± 1.20 % dose/g
Regional brain distribution Striatum ([1]; normal mice, iv, 30 min): 3.84 ± 1.05 % dose/g
Organ distribution Bone ([1]; normal mice, iv, 30 min, listed as [^1F]6b): 9.62 % dose/g
Organ distribution Blood ([1]; normal mice, iv, 1 hr): 1.04 ± 0.07 % dose/g
Organ distribution Bone ([1]; normal mice, iv, 1 hr): 16.6 ± 1.60 % dose/g
Organ distribution Brain ([1]; normal mice, iv, 1 hr): 0.91 ± 0.25 % dose/g
Organ distribution Heart ([1]; normal mice, iv, 1 hr): 1.74 ± 0.14 % dose/g
Organ distribution Kidney ([1]; normal mice, iv, 1 hr): 3.63 ± 0.30 % dose/g
Organ distribution Liver ([1]; normal mice, iv, 1 hr): 10.4 ± 0.95 % dose/g
Organ distribution Lung ([1]; normal mice, iv, 1 hr): 2.15 ± 0.12 % dose/g
Organ distribution Muscle ([1]; normal mice, iv, 1 hr): 1.05 ± 0.41 % dose/g
Organ distribution Skin ([1]; normal mice, iv, 1 hr): 1.38 ± 0.03 % dose/g
Organ distribution Spleen ([1]; normal mice, iv, 1 hr): 2.05 ± 0.05 % dose/g
Ratio (vs CB) Cortex ([1]; normal mice, iv, 1 hr): 1.10
Ratio (vs CB) Hippocampus ([1]; normal mice, iv, 1 hr): 1.35
Ratio (vs CB) Striatum ([1]; normal mice, iv, 1 hr): 2.71
Regional brain distribution Cerebellum (CB) ([1]; normal mice, iv, 1 hr): 0.77 ± 0.06 % dose/g
Regional brain distribution Cortex ([1]; normal mice, iv, 1 hr): 0.85 ± 0.12 % dose/g
Regional brain distribution Hippocampus ([1]; normal mice, iv, 1 hr): 1.04 ± 0.16 % dose/g
Regional brain distribution Striatum ([1]; normal mice, iv, 1 hr): 2.08 ± 0.27 % dose/g
Organ distribution Blood ([1]; normal mice, iv, 2 hr): 0.56 ± 0.07 % dose/g
Organ distribution Bone ([1]; normal mice, iv, 2 hr): 17.8 ± 1.83 % dose/g
Organ distribution Brain ([1]; normal mice, iv, 2 hr): 0.53 ± 0.05 % dose/g
Organ distribution Heart ([1]; normal mice, iv, 2 hr): 1.02 ± 0.09 % dose/g
Organ distribution Kidney ([1]; normal mice, iv, 2 hr): 2.40 ± 0.51 % dose/g
Organ distribution Liver ([1]; normal mice, iv, 2 hr): 8.53 ± 1.73 % dose/g
Organ distribution Lung ([1]; normal mice, iv, 2 hr): 1.40 ± 0.09 % dose/g
Organ distribution Muscle ([1]; normal mice, iv, 2 hr): 0.56 ± 0.11 % dose/g
Organ distribution Skin ([1]; normal mice, iv, 2 hr): 1.24 ± 0.53 % dose/g
Organ distribution Spleen ([1]; normal mice, iv, 2 hr): 1.15 ± 0.41 % dose/g
Ratio (vs CB) Cortex ([1]; normal mice, iv, 2 hr): 0.91
Ratio (vs CB) Hippocampus ([1]; normal mice, iv, 2 hr): 1.12
Ratio (vs CB) Striatum ([1]; normal mice, iv, 2 hr): 1.94
Regional brain distribution Cerebellum (CB) ([1]; normal mice, iv, 2 hr): 0.45 ± 0.01 % dose/g
Regional brain distribution Cortex ([1]; normal mice, iv, 2 hr): 0.41 ± 0.06 % dose/g
Regional brain distribution Hippocampus ([1]; normal mice, iv, 2 hr): 0.50 ± 0.06 % dose/g
Regional brain distribution Striatum ([1]; normal mice, iv, 2 hr): 0.87 ± 0.24 % dose/g
Kd [2]: 480 pM

COc1cc2c(cc1OCCC[18F])CCN1C[C@@H](CC(C)C)[C@H](O)C[C@H]21 [[^18F]-(+)-6b]
binding to islet cell homogenates [3]: specific and saturable
tissue uptake at 30 min ([4]; cerebellum, 30 min Blocking, DTBZ 3.8 mg/kg pretreatment, read-out: Regional Brain Distribution Cerebellum): 0.25 ± 0.03 %ID/g
tissue uptake at 30 min ([4]; cerebellum, 30 min Control, read-out: Regional Brain Distribution Cerebellum): 0.36 %ID/g
tissue uptake at 30 min ([4]; pancreas, 30 min Blocking, DTBZ 3.8 mg/kg pretreatment, read-out: Pancreas): 3.1 ± 0.3 %ID/g
tissue uptake at 30 min ([4]; pancreas, 30 min Control, read-out: Pancreas): 4.39 ± 0.64 %ID/g
tissue uptake at 30 min ([5]; blood, 30 min Blocking, DTBZ 3.8 mg/kg pretreatment, read-out: Blood): 0.32 ± 0.04 %ID/g
tissue uptake at 30 min ([5]; blood, 30 min Control, read-out: Blood): 0.2 ± 0.01 %ID/g
tissue uptake at 30 min ([5]; cortex, 30 min Blocking, DTBZ 3.8 mg/kg pretreatment, read-out: Regional Brain Distribution Cortex): 0.26 ± 0.05 %ID/g
tissue uptake at 30 min ([5]; cortex, 30 min Control, read-out: Regional Brain Distribution Cortex): 0.36 %ID/g
tissue uptake at 30 min ([5]; hippocampus, 30 min Blocking, DTBZ 3.8 mg/kg pretreatment, read-out: Regional Brain Distribution Hippocampus): 0.25 ± 0.03 %ID/g
tissue uptake at 30 min ([5]; hippocampus, 30 min Control, read-out: Regional Brain Distribution Hippocampus): 0.54 ± 0.03 %ID/g
tissue uptake at 30 min ([5]; hypothalamus, 30 min Blocking, DTBZ 3.8 mg/kg pretreatment, read-out: Regional Brain Distribution Hypothalamus): 0.25 ± 0.04 %ID/g
tissue uptake at 30 min ([5]; hypothalamus, 30 min Control, read-out: Regional Brain Distribution Hypothalamus): 1.2 ± 0.07 %ID/g
tissue uptake at 30 min ([5]; striatum, 30 min Blocking, DTBZ 3.8 mg/kg pretreatment, read-out: Regional Brain Distribution Striatum): 0.27 ± 0.02 %ID/g
tissue uptake at 30 min ([5]; striatum, 30 min Control, read-out: Regional Brain Distribution Striatum): 1.94 ± 0.03 %ID/g

From US8562949B2, “Radiolabeled dihydrotetrabenazine derivatives and their use as imaging agents” (The Trustees of the University of Pennsylvania, priority 2006, dated 2013)
